Laboratory results as given in ChEMBL document CHEMBL1147753, “Biphenyl-4-ylcarbamoyl thiophene carboxylic acids as potent DHODH inhibitors” (Bioorg Med Chem Lett, 2006).

Key:
[1] = target: Dihydroorotate dehydrogenase (quinone), mitochondrial (Homo sapiens, UniProt Q02127); test: Inhibitory activity against recombinant human DHODH
PBMC = test: Antiproliferative activity on human PBMC; type: functional, cell-based

Sequence of Dihydroorotate dehydrogenase (quinone), mitochondrial (Q02127 whole entry): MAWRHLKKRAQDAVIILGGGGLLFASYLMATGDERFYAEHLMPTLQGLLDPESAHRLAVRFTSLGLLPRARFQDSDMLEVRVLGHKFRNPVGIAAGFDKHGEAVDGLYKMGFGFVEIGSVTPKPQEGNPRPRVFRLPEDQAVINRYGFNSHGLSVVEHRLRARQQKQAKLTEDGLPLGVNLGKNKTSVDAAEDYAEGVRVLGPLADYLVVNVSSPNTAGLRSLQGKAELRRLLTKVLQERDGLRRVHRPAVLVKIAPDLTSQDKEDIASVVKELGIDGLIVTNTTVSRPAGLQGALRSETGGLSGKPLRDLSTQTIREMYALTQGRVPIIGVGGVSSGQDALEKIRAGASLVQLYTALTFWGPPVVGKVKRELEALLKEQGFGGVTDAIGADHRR

Work on `COc1cccc(-c2ccc(NC(=O)c3csc(C(=O)O)c3C(=O)O)c(F)c2)c1` yielded an IC50 [1] greater than 1000 nM.

`CCOc1cccc(-c2cc(F)c(NC(=O)c3ccsc3C(=O)O)c(F)c2)c1` was tested, and the IC50 [1] was 3 nM.

For `COc1cccc(-c2ccc(NC(=O)c3c(C(=O)O)csc3C(=O)O)c(F)c2)c1`, the IC50 [1] was greater than 1000 nM.

`CCOc1ccccc1-c1cc(F)c(NC(=O)c2ccsc2C(=O)O)c(F)c1` was tested, and the IC50 [1] was 9 nM.

In the case of `O=C(O)c1cscc1C(=O)Nc1ccc(-c2ccccc2)cc1`, the IC50 [1] is reported as 1000 nM.

`COc1cccc(-c2ccc(NC(=O)c3cocc3C(=O)O)c(F)c2)c1` was tested, and the IC50 [1] was 340 nM.

`COc1ccccc1-c1ccc(NC(=O)c2ccsc2C(=O)O)cc1Cl` was tested, and the IC50 [1] was 12 nM.

`COc1cccc(-c2ccc(NC(=O)c3cc(C(=O)O)sc3C(=O)O)c(F)c2)c1` was tested, and the IC50 [1] was greater than 1000 nM.

`O=C(O)c1cscc1C(=O)Nc1c(F)cc(-c2ccccc2OC(F)(F)F)cc1F` was tested, and the IC50 [1] was 10 nM and the IC50 (PBMC) was 2000 nM.

Compound `O=C(Nc1ccc(-c2ccccc2)cc1)c1ccsc1C(=O)O` has an IC50 [1] of 303 nM.

Compound `CCOc1ccccc1-c1cc(F)c(NC(=O)c2cscc2C(=O)O)c(F)c1` has an IC50 [1] of 10 nM.

With `COc1ccccc1-c1c(F)c(F)c(NC(=O)c2ccsc2C(=O)O)c(F)c1F` the IC50 (PBMC) was 2000 nM.

`COc1cccc(-c2ccc(NC(=O)c3ccsc3C(=O)O)c(F)c2)c1` gave an IC50 [1] of 44 nM and an IC50 (PBMC) of 20000 nM.

For `CCOc1cccc(-c2cc(F)c(NC(=O)c3cocc3C(=O)O)c(F)c2)c1`, the IC50 [1] was 16 nM and the IC50 (PBMC) was 15000 nM.
